In patent US12691113B2 (AstraZeneca AB, priority 2019, dated 2026):
“Also recorded” adds a separate entry of the source.

Assays:
HLY1 = experiment: Cell viability assay (Cell Titer Glo, 72 hours); type: cell-based; conditions: Homo sapiens, HLY1, DLBCL ABC subtype, single agent
Procedure: (§1) In addition, the study further explored the mechanism of action of the combination of acalabrutinib and capivasertib using western blot analysis.
(§2) Cell viability was measured using Cell Titer Glo reagent and readouts were taken using a Tecan plate reader with a 100 ms integration time. Data analysis was carried out using GeneData software version 15. A growth inhibition value less than 1 μM (GI50<1 μM) indicates sensitivity.

Karpas-422 = experiment: Cell viability assay (Cell Titer Glo, 72 hours); type: cell-based; conditions: Homo sapiens, Karpas-422, DLBCL GCB subtype, single agent
Procedure: as §1, §2

OCI-LY10 = experiment: Cell viability assay (Cell Titer Glo, 72 hours); type: cell-based; conditions: Homo sapiens, OCI-LY10, DLBCL ABC subtype, single agent
Procedure: as §1, §2

OCI-LY19 = experiment: Cell viability assay (Cell Titer Glo, 72 hours); type: cell-based; conditions: Homo sapiens, OCI-LY19, DLBCL GCB subtype, single agent
Procedure: as §1, §2

OCI-LY3 = experiment: Cell viability assay (Cell Titer Glo, 72 hours); type: cell-based; conditions: Homo sapiens, OCI-LY3, DLBCL ABC subtype, single agent
Procedure: as §1, §2

SuDHL4 = experiment: Cell viability assay (Cell Titer Glo, 72 hours); type: cell-based; conditions: Homo sapiens, SU-DHL-4, SuDHL4, DLBCL GCB subtype, single agent
Procedure: as §1, §2

SuDHL6 = experiment: Cell viability assay (Cell Titer Glo, 72 hours); type: cell-based; conditions: Homo sapiens, SU-DHL-6, SuDHL6, DLBCL GCB subtype, single agent
Procedure: as §1, §2

TMD8 = experiment: Cell viability assay (Cell Titer Glo, 72 hours); type: cell-based; conditions: Homo sapiens, TMD8, DLBCL ABC subtype, single agent
Procedure: as §1, §2

U2932 = experiment: Cell viability assay (Cell Titer Glo, 72 hours); type: cell-based; conditions: Homo sapiens, U2932, DLBCL ABC subtype, single agent
Procedure: as §1, §2

WILL1 = experiment: Cell viability assay (Cell Titer Glo, 72 hours); type: cell-based; conditions: WILL-1, WILL1, DLBCL Int subtype, single agent
Procedure: as §1, §2

WSU-DLCL2 = experiment: Cell viability assay (Cell Titer Glo, 72 hours); type: cell-based; conditions: Homo sapiens, WSUDLCL2, WSU-DLCL2, DLBCL GCB subtype, single agent
Procedure: as §1, §2

OCI-LY10 cells = experiment: Western blot analysis of phospho-proteins; type: cell-based, human; conditions: 2 or 24 hours; for phosphorylation of AKTS473: 100 nM acalabrutinib or both
From the text: (§3) Cells were then lysed in SDS lysis buffer, centrifuged and protein concentrations estimated. Samples were loaded onto Bis-Tris Novex gels, transferred onto nitrocellulose membranes and probed for phospho-proteins of interest.

TMD8 cells = experiment: Western blot analysis of phospho-proteins; type: cell-based, human; conditions: 2 or 24 hours; for phosphorylation of AKTS473: 100 nM acalabrutinib or both
From the text: as §3

[1] = system: TMD8 human ABC DLBCL xenograft; experiment: In vivo efficacy in subcutaneous TMD8 human ABC-DLBCL xenograft model; parameters: species or system mouse; conditions: SCID mice, oral BID, acalabrutinib 20 mg/kg; for TGI (tumor growth inhibition): capivasertib 130 mg/kg 4 days on/3 days off, after 24 days of treatment; for MAX AVG BODY WEIGHT LOSS: capivasertib 130 mg/kg, 24-day study
Procedure: (§4) TMD8 human ABC-DLBCL tumor cells (5×10^6/mouse) were implanted subcutaneously in female CB.17 SCID mice. […] Tumor length and width was measured by caliper and tumor volume was calculated using the formula (length×width^2)*π/6.

[2] = system: OCI-Ly10 human ABC DLBCL xenograft; experiment: In vivo efficacy in subcutaneous OCI-Ly10 human ABC-DLBCL xenograft model; parameters: species or system mouse; conditions: SCID mice, oral BID, acalabrutinib 20 mg/kg; for TGI (tumor growth inhibition): capivasertib 130 mg/kg 4 days on/3 days off, after 25 days of treatment; for MAX AVG BODY WEIGHT LOSS: capivasertib 130 mg/kg, 25-day study
Procedure: OCI-ly10 human ABC-DLBCL tumor cells (5×10^6/mouse) were implanted subcutaneously in female CB.17 SCID mice. […] Tumor length and width was measured by caliper and tumor volume was calculated using the formula (length×width^2)*π/6.

[3] = Plasma pharmacokinetics in the TMD8 xenograft efficacy study; type: in vivo, mouse; conditions: TMD8 xenograft mice; oral; day 20; 1, 2, 4 and 8-hour time points
Procedure: as §4

Row | Structure (SMILES) | GI50 (HLY1) [µM] | GI50 (Karpas-422) [µM] | GI50 (OCI-LY10) [µM] | GI50 (OCI-LY19) [µM] | GI50 (OCI-LY3) [µM] | GI50 (SuDHL4) [µM] | GI50 (SuDHL6) [µM] | GI50 (TMD8) [µM] | GI50 (U2932) [µM] | GI50 (WILL1) [µM] | GI50 (WSU-DLCL2) [µM] | phosphorylation of AKTS473 (OCI-LY10 cells; 1 μM capivasertib) | phosphorylation of AKTS473 (TMD8 cells; 1 μM capivasertib) | TGI (tumor growth inhibition) [1] [%] | MAX AVG BODY WEIGHT LOSS [1] [%] | TGI (tumor growth inhibition) [2] [%] | MAX AVG BODY WEIGHT LOSS [2] [%] | further results
1 | NC1(C(=O)N[C@@H](CCO)c2ccc(Cl)cc2)CCN(c2ncnc3[nH]ccc23)CC1 [capivasertib, (S)-4-amino-N-(1-(4-chlorophenyl)-3-hydroxypropyl)-1-(7H-pyrrolo[2,3-d]pyrimidin-4-yl)piperidine-4-carboxamide] | > 3 | 0.2 | > 3 | > 3 | > 3 | 0.71 | 0.36 | > 3 | > 3 | > 3 | 0.06 | increased | increased | 0 | 2 | 0 | 3 | phosphorylation of the downstream substrates PRAS40, GSK3β, FOXO and S6 (OCI-LY10 cells; 1 μM capivasertib): decreased; phosphorylation of the downstream substrates PRAS40, GSK3β, FOXO and S6 (TMD8 cells; 1 μM capivasertib): decreased; TGI (tumor growth inhibition) ([1]; listed as Capivasertib): 0%; TGI (tumor growth inhibition) ([2]; listed as Capivasertib): 0%
2 | CC#CC(=O)N1CCC[C@H]1c1nc(-c2ccc(C(=O)Nc3ccccn3)cc2)c2c(N)nccn12 [acalabrutinib, 4-{8-amino-3-[(2S)-1-(but-2-ynoyl)pyrrolidin-2-yl]imidazo[1,5-a]pyrazin-1-yl}-N-(pyridin-2-yl)benzamide] | > 3 | > 3 | 0.022 | > 3 | > 3 | > 3 | > 3 | 0.025 | > 3 | > 3 | > 3 | decreased | decreased | 81 | 5 | 74 | 2 | phosphorylation of BTK (OCI-LY10 cells; 100 nM acalabrutinib): decrease; phosphorylation of BTK (TMD8 cells; 100 nM acalabrutinib): decrease; TGI (tumor growth inhibition) ([1]; listed as Acalabrutinib): 81%; TGI (tumor growth inhibition) ([2]; listed as Acalabrutinib): 74%; steady-state drug exposure levels (unbound plasma concentrations), single agent versus combination [3]: similar; also recorded: comparable
